Measurements taken from ChEMBL document CHEMBL5715954, “Silencing c-Myc translation as a therapeutic strategy through targeting PI3Kδ and CK1ε in hematological malignancies” (Blood, 2017).

Tests used:
Set-up in all cases: scale not given: the % may be the effect or the level left
[1] = biological target: Mitogen-activated protein kinase kinase kinase 8 (Homo sapiens) (UniProt P41279); assay: Inhibition of human COT1 assessed as enzyme activity at 1 uM using MEK1 (K97R) as substrate preincubated for 20 mins followed by [gamma-33P]-ATP addition and measured after 120 mins by radiometric Hot-SpotSM Kinase assay relative to control
[2] = biological target: Receptor tyrosine-protein kinase erbB-2 (Homo sapiens) (UniProt P04626); assay: Inhibition of human ERBB2 assessed as enzyme activity at 1 uM using poly[Glu:Tyr] (4:1) as substrate preincubated for 20 mins followed by [gamma-33P]-ATP addition and measured after 120 mins by radiometric Hot-SpotSM Kinase assay relative to control
[3] = biological target: Mitogen-activated protein kinase kinase kinase kinase 1 (Homo sapiens) (UniProt Q92918); assay: Inhibition of human HPK1 assessed as enzyme activity at 1 uM using myelin basic protein as substrate preincubated for 20 mins followed by [gamma-33P]-ATP addition and measured after 120 mins by radiometric Hot-SpotSM Kinase assay relative to control
[4] = biological target: T1, Kinase suppressor of Ras 1 (Homo sapiens) (UniProt Q8IVT5); assay: Inhibition of human KSR1 assessed as enzyme activity at 1 uM using KRREILSRRPSYR as substrate preincubated for 20 mins followed by [gamma-33P]-ATP addition and measured after 120 mins by radiometric Hot-SpotSM Kinase assay relative to control
T1 sequence (whole entry): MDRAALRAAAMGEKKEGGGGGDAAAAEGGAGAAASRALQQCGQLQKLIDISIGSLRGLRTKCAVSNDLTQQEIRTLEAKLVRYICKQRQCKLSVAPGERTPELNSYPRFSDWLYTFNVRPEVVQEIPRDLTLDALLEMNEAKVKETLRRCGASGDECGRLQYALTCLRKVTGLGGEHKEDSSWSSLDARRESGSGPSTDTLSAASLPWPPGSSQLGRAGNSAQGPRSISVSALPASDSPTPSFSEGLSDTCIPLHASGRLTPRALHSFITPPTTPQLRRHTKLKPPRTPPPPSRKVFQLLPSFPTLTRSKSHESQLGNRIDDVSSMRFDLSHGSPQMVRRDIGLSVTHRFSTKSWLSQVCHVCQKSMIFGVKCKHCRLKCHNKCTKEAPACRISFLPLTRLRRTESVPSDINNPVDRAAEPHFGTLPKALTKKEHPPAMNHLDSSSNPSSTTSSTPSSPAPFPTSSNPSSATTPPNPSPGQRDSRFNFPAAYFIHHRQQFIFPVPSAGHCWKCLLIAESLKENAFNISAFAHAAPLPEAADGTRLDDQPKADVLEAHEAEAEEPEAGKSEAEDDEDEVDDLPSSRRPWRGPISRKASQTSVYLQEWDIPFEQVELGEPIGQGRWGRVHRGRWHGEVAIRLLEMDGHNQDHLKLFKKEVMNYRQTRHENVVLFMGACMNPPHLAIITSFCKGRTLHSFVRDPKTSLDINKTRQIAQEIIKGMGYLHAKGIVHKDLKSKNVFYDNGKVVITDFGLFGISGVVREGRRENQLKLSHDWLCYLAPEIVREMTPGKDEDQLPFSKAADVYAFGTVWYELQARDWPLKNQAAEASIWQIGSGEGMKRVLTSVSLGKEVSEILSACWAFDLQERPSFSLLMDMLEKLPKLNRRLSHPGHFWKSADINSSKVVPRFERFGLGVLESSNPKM

[5] = biological target: T2, MAP/microtubule affinity-regulating kinase 4 (Homo sapiens) (UniProt Q96L34); assay: Inhibition of human MARK4 assessed as enzyme activity at 1 uM using KKKVSRSGLYRSPSMPENLNRPR as substrate preincubated for 20 mins followed by [gamma-33P]-ATP addition and measured after 120 mins by radiometric Hot-SpotSM Kinase assay relative to control
T2 sequence (whole entry): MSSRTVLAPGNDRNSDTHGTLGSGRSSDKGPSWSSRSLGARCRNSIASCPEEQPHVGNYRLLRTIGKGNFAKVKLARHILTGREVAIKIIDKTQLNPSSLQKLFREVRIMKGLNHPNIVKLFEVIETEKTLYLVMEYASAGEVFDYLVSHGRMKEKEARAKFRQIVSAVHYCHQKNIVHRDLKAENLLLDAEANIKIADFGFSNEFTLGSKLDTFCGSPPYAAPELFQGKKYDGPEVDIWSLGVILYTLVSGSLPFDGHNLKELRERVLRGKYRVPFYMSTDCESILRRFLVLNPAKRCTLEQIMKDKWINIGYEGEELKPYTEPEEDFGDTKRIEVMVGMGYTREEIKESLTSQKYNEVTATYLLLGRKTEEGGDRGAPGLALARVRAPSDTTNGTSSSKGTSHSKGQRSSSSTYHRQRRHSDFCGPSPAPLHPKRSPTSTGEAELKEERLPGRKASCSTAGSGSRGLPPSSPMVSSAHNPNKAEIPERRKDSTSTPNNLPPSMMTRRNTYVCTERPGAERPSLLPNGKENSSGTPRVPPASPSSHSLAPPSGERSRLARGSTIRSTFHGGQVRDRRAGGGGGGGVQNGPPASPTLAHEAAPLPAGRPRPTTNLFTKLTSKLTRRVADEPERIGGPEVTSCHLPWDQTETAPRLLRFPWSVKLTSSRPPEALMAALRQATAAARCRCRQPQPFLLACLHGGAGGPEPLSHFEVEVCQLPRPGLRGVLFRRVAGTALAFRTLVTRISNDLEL

[6] = biological target: T3, Mitogen-activated protein kinase 12 (Homo sapiens) (UniProt P53778); assay: Inhibition of human P38g assessed as enzyme activity at 1 uM using myelin basic protein as substrate preincubated for 20 mins followed by [gamma-33P]-ATP addition and measured after 120 mins by radiometric Hot-SpotSM Kinase assay relative to control
T3 sequence (whole entry): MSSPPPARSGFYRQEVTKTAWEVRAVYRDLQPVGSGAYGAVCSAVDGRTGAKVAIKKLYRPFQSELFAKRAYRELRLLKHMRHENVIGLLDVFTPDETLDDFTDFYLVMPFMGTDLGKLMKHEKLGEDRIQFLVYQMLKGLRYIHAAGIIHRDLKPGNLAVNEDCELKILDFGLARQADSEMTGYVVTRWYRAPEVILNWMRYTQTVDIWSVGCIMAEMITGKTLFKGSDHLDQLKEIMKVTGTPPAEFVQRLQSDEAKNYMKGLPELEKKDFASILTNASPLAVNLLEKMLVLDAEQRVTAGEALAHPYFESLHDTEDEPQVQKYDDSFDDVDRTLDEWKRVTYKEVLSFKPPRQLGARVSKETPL

Mitogen-activated protein kinase kinase kinase kinase 1 (Homo sapiens), sequence (Q92918 whole entry, looked up): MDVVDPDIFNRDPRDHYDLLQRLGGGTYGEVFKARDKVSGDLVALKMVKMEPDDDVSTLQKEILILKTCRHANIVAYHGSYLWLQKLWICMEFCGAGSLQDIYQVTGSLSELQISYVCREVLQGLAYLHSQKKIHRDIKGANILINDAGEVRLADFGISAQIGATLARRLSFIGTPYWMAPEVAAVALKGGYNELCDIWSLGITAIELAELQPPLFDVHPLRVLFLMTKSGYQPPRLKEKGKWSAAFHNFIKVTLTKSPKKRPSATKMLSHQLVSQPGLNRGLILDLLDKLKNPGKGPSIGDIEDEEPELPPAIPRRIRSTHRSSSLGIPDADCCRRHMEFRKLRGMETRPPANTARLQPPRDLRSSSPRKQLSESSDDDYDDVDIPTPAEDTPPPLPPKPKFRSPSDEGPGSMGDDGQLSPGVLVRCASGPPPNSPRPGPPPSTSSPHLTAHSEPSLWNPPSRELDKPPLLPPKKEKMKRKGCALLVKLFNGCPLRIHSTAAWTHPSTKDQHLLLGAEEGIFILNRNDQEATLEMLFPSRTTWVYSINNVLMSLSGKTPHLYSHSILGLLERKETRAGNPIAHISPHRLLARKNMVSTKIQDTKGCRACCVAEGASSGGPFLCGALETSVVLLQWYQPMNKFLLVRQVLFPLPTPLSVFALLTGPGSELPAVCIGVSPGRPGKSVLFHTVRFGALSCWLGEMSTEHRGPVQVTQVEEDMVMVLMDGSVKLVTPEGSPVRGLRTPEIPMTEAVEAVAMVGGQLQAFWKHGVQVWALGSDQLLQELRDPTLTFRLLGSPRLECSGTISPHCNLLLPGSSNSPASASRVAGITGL
Receptor tyrosine-protein kinase erbB-2 (Homo sapiens), sequence (P04626 whole entry): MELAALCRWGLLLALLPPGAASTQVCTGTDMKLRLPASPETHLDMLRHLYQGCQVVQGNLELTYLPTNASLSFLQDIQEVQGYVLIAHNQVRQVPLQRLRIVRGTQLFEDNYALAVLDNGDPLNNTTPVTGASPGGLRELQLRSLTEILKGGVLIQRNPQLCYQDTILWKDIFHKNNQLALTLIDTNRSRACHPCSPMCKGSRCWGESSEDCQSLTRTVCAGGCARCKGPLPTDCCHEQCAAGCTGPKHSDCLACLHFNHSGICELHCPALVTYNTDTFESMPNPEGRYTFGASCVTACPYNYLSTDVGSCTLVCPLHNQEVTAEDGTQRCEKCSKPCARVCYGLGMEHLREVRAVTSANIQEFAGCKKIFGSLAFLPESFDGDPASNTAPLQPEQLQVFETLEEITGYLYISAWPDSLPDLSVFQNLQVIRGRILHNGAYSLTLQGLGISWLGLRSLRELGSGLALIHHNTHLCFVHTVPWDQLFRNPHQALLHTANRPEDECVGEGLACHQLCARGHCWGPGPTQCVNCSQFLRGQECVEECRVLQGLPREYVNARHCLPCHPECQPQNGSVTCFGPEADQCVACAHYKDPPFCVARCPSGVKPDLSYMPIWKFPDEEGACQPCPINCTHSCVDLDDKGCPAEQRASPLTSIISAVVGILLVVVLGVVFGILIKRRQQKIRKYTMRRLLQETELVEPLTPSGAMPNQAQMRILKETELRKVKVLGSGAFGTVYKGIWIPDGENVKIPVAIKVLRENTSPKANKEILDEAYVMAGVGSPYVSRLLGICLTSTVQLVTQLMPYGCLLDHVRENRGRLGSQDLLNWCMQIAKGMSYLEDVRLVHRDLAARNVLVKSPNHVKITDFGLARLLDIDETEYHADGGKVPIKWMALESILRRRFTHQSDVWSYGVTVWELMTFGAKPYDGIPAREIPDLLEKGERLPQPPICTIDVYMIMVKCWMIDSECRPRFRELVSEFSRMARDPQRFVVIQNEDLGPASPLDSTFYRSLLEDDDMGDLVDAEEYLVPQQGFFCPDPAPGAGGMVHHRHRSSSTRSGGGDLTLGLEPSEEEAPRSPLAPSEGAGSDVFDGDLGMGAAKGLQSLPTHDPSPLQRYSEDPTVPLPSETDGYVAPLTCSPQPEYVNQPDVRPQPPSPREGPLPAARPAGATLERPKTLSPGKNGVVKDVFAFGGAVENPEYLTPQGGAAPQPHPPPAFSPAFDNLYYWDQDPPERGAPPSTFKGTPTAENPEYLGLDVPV
Mitogen-activated protein kinase kinase kinase 8 (Homo sapiens), sequence (P41279 whole entry): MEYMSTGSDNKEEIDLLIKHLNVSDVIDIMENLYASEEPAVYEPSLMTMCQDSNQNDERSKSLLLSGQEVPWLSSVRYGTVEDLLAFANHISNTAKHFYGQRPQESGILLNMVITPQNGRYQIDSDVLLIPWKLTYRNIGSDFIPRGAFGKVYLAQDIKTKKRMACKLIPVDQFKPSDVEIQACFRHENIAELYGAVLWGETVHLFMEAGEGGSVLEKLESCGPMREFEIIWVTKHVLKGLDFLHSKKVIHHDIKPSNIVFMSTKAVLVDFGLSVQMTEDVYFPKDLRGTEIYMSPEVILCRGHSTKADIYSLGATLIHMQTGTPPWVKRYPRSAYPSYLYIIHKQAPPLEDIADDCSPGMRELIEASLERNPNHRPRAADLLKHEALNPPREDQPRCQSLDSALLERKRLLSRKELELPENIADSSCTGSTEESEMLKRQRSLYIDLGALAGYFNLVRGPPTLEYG

## CC[C@H](Nc1ncnc2[nH]cnc12)c1nc2cccc(F)c2c(=O)n1-c1ccccc1
[1]
  Activity: 101%
[2]
  Activity: 109%
[3]
  Activity: 98%
[4]
  Activity: 102%
[5]
  Activity: 97%
[6]
  Activity: 96.8%

## CC(C)Oc1ccc(-c2nn([C@@H](C)c3oc4ccc(F)cc4c(=O)c3-c3cccc(F)c3)c3ncnc(N)c23)cc1F [UMBRALISIB]
[1]
  Activity: 98.2%
[2]
  Activity: 117%
[3]
  Activity: 105%
[4]
  Activity: 103%
[5]
  Activity: 112%
[6]
  Activity: 96.4%

## C[C@H](Nc1ncnc2nc[nH]c12)c1cc2cccc(Cl)c2c(=O)n1-c1ccccc1
[1]
  Activity: 96.8%
[2]
  Activity: 104%
[3]
  Activity: 104%
[4]
  Activity: 99.2%
[5]
  Activity: 109%
[6]
  Activity: 98.2%
